Consider 90 compounds from a melting point compilation (Tetko et al.; mined from patent text by program, amines drawn as free bases though some values may be those of a salt).

Non-standard residues stand in square brackets, D forms with d. Residues, ends and D or L forms follow the SMILES beside them. Hyp = O=C(O)[C@@H]1C[C@@H](O)CN1 Where only a bound is given, the exact number is not on record here.

As to `COC(=O)CCc1ccc(N2CCN(CCCCC#N)C2=O)cc1`, the melting point (usually the temperature of the solid-liquid transition) fell in the range of 99 to 101 °C. Next, `CC(C)Cc1ncn(C(C)C(O)(Cc2nc[nH]n2)c2ccc(Cl)cc2)n1` (stereo not given): 140 to 141 °C; `CC(=O)OCC(=O)Nc1cccc(N2CCOCC2)c1C#N`: 131 to 132 °C; `CCCOc1c(Cl)cc(Cl)c2c(=O)c3ccccc3sc12`: 104 to 105 °C.

In the case of `COc1ccc(Cc2cccc(-c3c(O)c4ccc(Cl)cc4[nH]c3=O)c2)cc1`, the melting point lay in the range of 282 to 284 °C. In the case of `Cc1cc(=O)n(C)c2ccc(OCCCN3CCC(NC(=O)c4ccccc4)CC3)cc12`, the melting point lay within 188 to 190 °C. `CN1CCCc2cc(Cc3cnc(N)nc3N)ccc21` registered a melting point of 190 to 191 °C. In turn, `COc1ccc(-c2c(NC(=O)Nc3ccc(F)cc3F)c(=O)oc3ccc(Cl)cc23)cc1OC` yielded a melting point of 267 to 270 °C. `Cc1ccc(C(=NO)C(F)(F)F)cc1` showed a melting point of 54 to 68 °C. `CCN1C(=O)C(C)(C)C(=O)Nc2ccc(C=O)cc21` yielded a melting point of 188 to 191 °C. Under `S=C(Nc1cccc(Cl)c1)N1CCCSC1c1ccc(Br)cc1` (stereo not given) stands 144 to 146 °C; under `Cc1cc(C)c(Nc2nc(C)ccc2S(=O)(=O)c2ccc(OCc3c(F)cccc3[N+](=O)[O-])cc2)c(C)c1`, 132 to 134 °C. As for `CC(C)(C)c1cc(-c2nn(CC#N)c3ncccc23)cc(C(C)(C)C)c1O`, the melting point was 141 to 143 °C.

In turn, `CCCCCCC/C=C/C(=O)NCCC(C)C` yielded a melting point of 28 to 31 °C.

`CC1(C)OC(=O)Nc2ccc(-c3ccccc3CC#N)cc21` displayed a melting point of 176 to 179 °C. With `CC(C)C(=O)Oc1ccc(C(=O)c2ccccc2)cc1`, the melting point is 69 to 69.5 °C. On to `O=C(Cl)N1CC(Oc2ccc(F)cc2Cl)C1`, for which the melting point fell in the range of 93 to 94 °C.

Compound `CCOC(=O)C1(CS(=O)(=O)c2ccc(OC)cc2)CO1` (stereo not given) displayed a melting point of 77 to 79 °C. Under `CC1(C)COc2ccc(C(=O)O)cc2OC1` stands 172 to 173 °C; under `O=C1c2ccccc2C(=O)N1CCCCN1CCN(c2ncccn2)CC1`, 138 °C; under `Nc1ncnc2c1ncn2[C@H]1C=C[C@@H](O)CC1` (racemic), 181 to 183 °C. `CC(C)c1cc(Br)cc(C(C)C)c1N=C(c1ccccc1)c1ccccc1` showed a melting point of 114 °C.

`Fc1ccc(Cn2ccc3cc(Br)ccc32)cc1`: the melting point was in the range of 57 to 58 °C.

Regarding `Cc1cc2c(cc1C)OCCC(C(=O)O)=C2`, the melting point is 266 to 267 °C. For `Cn1cc2c(C3CC3C#N)c(Br)ccc2n1` (stereo not given), the melting point lay within 154 to 156 °C.

`CCCC(=O)COS(=O)(=O)c1c(C)cc(C)cc1C` returned a melting point of 57.5 to 58.5 °C. In turn, `CC(COc1ccc(CC2SC(=O)NC2=O)cc1)NCC(O)c1cccc(C(F)(F)F)c1` (stereo not given) registered a melting point of 100 to 105 °C.

In turn, `COc1ccc(-c2cc(C(=O)C(F)(F)F)[nH]c2-c2ccc(OC)cc2)cc1` returned a melting point of 185 to 186 °C. For the compound `CN(C(=O)COc1nnc(C(F)F)s1)c1ccccc1`, the melting point is 67 °C. For the compound `CC(C)(C)C(=O)Nc1ccccc1CC(O)c1ccccc1` (stereo not given), the melting point was in the range of 183 to 184 °C. Consider `COC1=CC=CC(OCCCN2CCN(c3n[nH]c4ccccc34)CC2)(C(C)=O)C1` (stereo not given), for which the melting point lay in the range of 155 to 157 °C.

Compound `Cn1ncc2[nH]c3cccc(-c4cccc(O)c4)c3c(=O)c21` registered a melting point above 300 °C. On to `O=C(O)c1ncc(C(c2ccccc2)c2ccccc2)cc1C(c1ccccc1)c1ccccc1`, for which the melting point is 172 to 175 °C. Compound `CS(=O)(=O)c1ccc(N2CCC3(CC2)Nc2cc(Cl)ccc2C(=O)O3)cc1` returned a melting point of 193 to 194 °C. The compound `Cc1ccc(C2(CC(=O)O)CNC(=O)C2)c(C)c1` (stereo not given) returned a melting point of 225 to 230 °C. Under `Cc1ccc(-n2nc(C#N)cc2-c2ccc(S(C)(=O)=O)cc2)cc1Cl` stands 174 to 176 °C; under `O=C1C2=C(CCCC2)C(O)N1c1ccc(Cl)cc1F` (stereo not given), 178 to 179 °C; under `COCCCCc1cccc(C2(c3ccc(OC(F)F)cc3)N=C(N)N(C)C2=O)c1` (stereo not given), 36 to 39 °C. `Cn1ncc(C(=O)N2CCC2)c1C(=O)Nc1ccn2nc(-c3cccc(F)c3)nc2c1` yielded a melting point of 232 to 236 °C. Under `COC(=O)C1(O)CSC(SC(C)=O)=C1Cl` (stereo not given) stands 133 to 135 °C. Compound `CCOC(=O)COc1ccc(C(=O)Nc2ccccc2Sc2ccc(-c3nnn[nH]3)cc2)cc1` showed a melting point of 148 to 149 °C. Next, `COC(=O)CCc1ccc(C(=O)Cc2ccccc2)cc1`: 77 to 78 °C; `CC(=O)Nc1ccc2c(c1)C(=O)C1(CC1)O2`: 211 to 212 °C. `CCCCn1cc(C(=O)C(=O)O)c2cc(-c3cccc(Cl)c3)ccc21` showed a melting point of 108 to 109 °C. Compound `O=[N+]([O-])c1ccc(CS(=O)(=O)CCO)cc1CS(=O)(=O)CCO` yielded a melting point of 211 to 212 °C.

`O=C(O)COCc1cc2cc(C(F)(F)F)ccc2n1S(=O)(=O)c1ccccc1` returned a melting point of 158 to 160 °C. Next, `N#Cc1ccc(-c2ccc3nncn3n2)cc1`: 272 to 274 °C; `COC(=O)C(CCSC)NC(=O)c1ccc(NC(=O)C2CC(O)CN2C(=O)OC(C)(C)C)cc1-c1ccccc1` (stereo not given): 121 to 123 °C. On to `O=S(=O)(/C=C/c1ccsc1)CS(=O)(=O)/C=C/c1ccsc1`, for which the melting point lay in the range of 150 to 152 °C. For the compound `C#CCN(Cc1ccc2nc(C)[nH]c(=O)c2c1)c1ccc(C(=O)NCC(OC(C)=O)c2ccccc2)cc1` (stereo not given), the melting point lay in the range of 203 to 205 °C.

Compound `Cc1cc(OS(=O)(=O)C(F)(F)F)c2cccc(OCc3ccccc3)c2n1` registered a melting point of 158 °C.

`CCCCC[C@H]1CC[C@H](C=CCCc2ccc(O)cc2)CC1` returned a melting point of 89 to 90 °C.

Compound `O=C(Nc1ccc2oc3c(c2c1)CCCC3)c1ccc(Cl)cc1` registered a melting point of 214 °C. In turn, `CC(C)(O)C(C(=O)O)c1ccc(F)cc1` (stereo not given) yielded a melting point of 86 to 88 °C. The compound `CCOC(=O)C(CC=C(C)C=CC1=C(C)CCCC1(C)C)C(C)=O` (stereo not given) displayed a melting point of 152 °C. Turning to `CC1(C)Cc2ccc(F)cc2C=[N+]1[O-]`, the melting point is 88 to 90 °C.

Turning to `CCCc1cc(C(O)=S)cc(N)c1-c1ccccc1`, the melting point was 190 to 191 °C. With `CCOC(=O)c1cn(-c2ccc(F)cc2F)c2c(Cl)c(F)c(F)cc2c1=O`, the melting point is 211 to 212 °C. `CC(=O)SCC(=O)C1CCC2C3CCC4CC(O)C(N5CCOC(C)(C)C5)CC4(C)C3C(=O)CC12C` (stereo not given) displayed a melting point of 181 to 182 °C. Turning to `COC(=O)c1cc(-n2c(=O)c3c(n(C)c2=O)CCC3)c(F)cc1Cl`, the melting point was in the range of 138 to 141 °C.

Consider `CC#Cc1[nH]c(=O)n2c1CN(C)Cc1cc(F)ccc1-2`, for which the melting point lay within 219 to 220 °C. Next, `Cn1c(=O)c(-c2ccc(Cl)cc2Cl)cc2c3cc(-c4cc(N)n[nH]4)ccc3n(C)c21`: 284 to 286 °C. Under `CCOC(=O)C1=C(C(=O)OCC)C(c2ccccc2[N+](=O)[O-])C(C(=O)OCC)=C(C(=O)OCC)N1` stands 109 °C; under `NS(=O)(=O)c1ccc(N2CN(c3cccc(Cl)c3)CC2=O)c(Cl)c1`, 208 to 216 °C; under `Nc1ccc(C(O)(C(F)(F)F)C(F)(F)F)cc1O`, 168 to 170 °C. Under `CC(=O)Nc1n[nH]c(C(C)(C)C)c1Br` stands 234 to 235 °C; under `Cc1c(CCl)ncn1C(c1ccccc1)(c1ccccc1)c1ccccc1`, 133 to 135 °C; under `CC(C)c1ccc(S(=O)(=O)Nc2cnc(Cl)cc2I)cc1`, 160 °C. Take `CN(C(=O)OC(C)(C)C)[C@@H](Cc1ccc(O)cc1)C(=O)N1CCN(c2ccc(Cl)c(Cl)c2)CC1`: the melting point lay within 77 to 78 °C.

`COc1ccc(-c2ccc(NC(=O)OC(C)(C)C)cc2)cc1` registered a melting point of 142 to 147 °C. Consider `CCCCCOc1cc(C(=O)O)cc([N+](=O)[O-])c1C(=O)c1ccccc1`, for which the melting point lay within 163 to 165 °C. `CSc1csc2c1CCN(C)CC2c1ccccc1` (stereo not given) showed a melting point of 93 °C. `CCOc1cc2ncc3c(N)nc(-c4ccc(Br)cc4)cc3c2cc1OCC` came in with a melting point of 230 to 235 °C. Turning to `CCOC(=O)CN(C)C(=S)CCc1nc2c(F)c(F)cc(F)c2s1`, the melting point was 83 to 85 °C. Next, `CCOC(=O)C1CCc2cc3ccccc3n2C1=O` (stereo not given): 82 to 84 °C; `COc1ccc(CCNc2nccc(-c3cccc(NC(C)=O)c3)n2)cc1OC`: 146 to 148 °C; `NCC(=O)N1C[C@H](O)C[C@H]1C(=O)N[C@@H](CCC(=O)O)C(=O)O` (H-Gly-[Hyp]-Glu-OH): 158 to 160 °C.

In turn, `CCOC(=O)C(C#N)=NOS(=O)(=O)c1ccc(C)cc1` displayed a melting point of 84 to 87 °C. `CCCn1c(=O)c2[nH]c(/C=C/c3ccc(Cl)cc3)nc2n(CCC)c1=O` yielded a melting point above 290 °C. As for `CCn1cc(C(=O)O)c(=O)cc1-c1cccnc1`, the melting point lay within 209 to 210 °C. In turn, `CC(=O)c1cn(Cc2ccccc2)c(=O)n(Cc2ccccc2)c1=O` yielded a melting point of 92 to 93 °C.

Consider `CCCCCOCCOc1ccc(-c2ccc3c(c2)C=C(C(=O)Nc2ccc(CN(C)C4CCOCC4)cc2)CCS3(=O)=O)cc1`, for which the melting point lay within 188 to 189 °C.

`NC1=NS(=O)N=C1NCCSCc1ccc(CN2CCCCC2)o1` (stereo not given) came in with a melting point of 161 to 163 °C.

`COc1ccnc(CSc2nc3cc4c(cc3[nH]2)OC(F)C(F)(F)O4)c1` (stereo not given) gave a melting point of 139 to 140 °C. Under `[N-]=[N+]=NC1CC(n2cnc3c(N4CCCC4)nc(N)nc32)OC1CO` (stereo not given) stands 180 to 183 °C; under `CC1(C)CC(=O)c2cc(O)ccc2S1`, 135 to 142 °C; under `BrCc1c(Br)c(CBr)c(Br)c(CBr)c1Br`, 220 to 223 °C. Next, `Cc1ccc(-c2cnc(N)c([N+](=O)[O-])c2)cc1`: 183 to 184 °C; `CCCC1(CCC)c2cc(-c3nc4cc(C)ccc4o3)ccc2-c2cc(OC)c(-c3nc4cc(C)ccc4o3)cc21`: 240 to 248 °C; `Nc1nc(OCc2cccc(Br)c2)ncc1F`: 143 to 145 °C.
